Assay results published in US8557859B2, “Immunomodulatory compositions” (Summit (Wales) Limited, priority 2003, dated 2013).
Where two headings read alike, the source gives them in different places.

Tests used:
Dendritic cells [1] = assay: Induction of IL-12 secretion in dendritic cells (ELISA); assay type: cell-based, BALB/c mice; settings: for IL-12 RELEASE: dendritic cells, compounds 50 μg/ml and 20 μg/ml, 24 hrs (or 48 hrs)
Protocol: BALB/c male and female mice bred and maintained at the University of Strathclyde under conventional conditions were used at 8 weeks old.
Bone marrow was obtained from the femurs of mice. The femurs were washed in 70% ethanol and placed in a clean petri dish. Dendritic cell (DC) medium (2.5% granulocyte-macrophage colony-stimulating factor (GM-CSF), 10% […] foetal calf serum, 1% L-glutamine, 1% Penicillin/Streptomycin in RPMI-1640 medium) was injected into the bone marrow of the femur by a pumping action and the cells and medium were collected. 1 ml of the cells in medium was added to a 75 cm^2 flask with 15 mls of DC medium. The flasks were then incubated at 37° C., 5% CO2 to allow DC growth and development. After 5 days an additional 10 mls of DC medium was added.
After 10 days of incubation of bone marrow with GM-CSF, the dendritic cells were harvested. This process was carried out in a tissue culture hood. The contents of the flasks were poured into centrifuge tubes to ensure collection of floating DCs. Approximately 10 mls of cooled phosphate buffered saline (PBS) was added to each empty flask, the flasks gently agitated and the contents collected. […] The collected contents of the flasks were centrifuged for 5 minutes at 200 g and the pellet resuspended in 2 mls of DC medium without GM-CSF. A cell count was then carried out.
Cells were counted using a haemocytometer. Approximately 20 μl of the resuspended cells was pipetted into the chamber of the haemocytometer, the cells were adjusted to the correct cell concentration (approx. 5×10^4, and not less than 1×10^4, per well) and then plated out for assay.
The plates were incubated overnight at 37° C. with 5% CO2 and allowed to settle (harvesting stimulates them). The next day the compounds (50 μg/ml and 20 μg/ml) and controls were added then again incubated at 37° C. with 5% CO2 for 24 hrs (or 48 hrs). Harvesting and addition of the compounds was all done in a hood. The plates were then frozen to kill the cells and once defrosted the supernatant analysed as described below.
Using an enzyme linked immunosorbent assay (ELISA) IL-12 concentration in the supernatants was measured. All reagents used in this assay were from PharMingen. A 96-well flat-bottomed ELISA plate was coated with purified rat anti-mouse IL-12 (p40/p70) MAb (Cat no. 554478) at 2 μg/ml diluted in PBS pH 9.0 at 50 μl/well. The plate was then covered in cling film and incubated at 4° C. Following incubation the plate was washed 3 times in washing buffer and dried. 200 μl of blocking buffer (10% foetal calf serum in PBS pH 7.0) was added to each well then covered in cling film and incubated at 37° C. for 45 minutes. The plate was washed 3 times and dried. Recombinant mouse Il-12 standard was added at 30 μl in duplicate wells, starting at 10 ng/ml then 5, 2.5, 1.25, 0.625, 0.31, 0.156, 0.078, 0.039, 0.020, 0.010, 0.005 ng/ml. Standards were diluted in blocking buffer. The supernatant samples were added in at 50 μl/well. The plate was then covered in cling film and incubated for 2 hours at 37° C. The plate was then washed 4 times, dried and the secondary antibody added.
Biotin labelled anti-mouse IL-12 (p40/p70) MAb (Cat no. 18482D) at 1 μg/ml (diluted in blocking buffer) was added to each well at a volume of 100 μl/well. The plate was covered in cling film and incubated at 37° C. for 1 hour. The plate was then washed 5 times, dried and the conjugate added. Streptavidin-AKP (Cat no. 13043E) at 100 μl/well was added at a dilution of 1/2000 in blocking buffer followed by incubation under cling film at 37° C. for 45 minutes.
The plate was finally washed 6 times, dried and the substrate added. pNPP (Sigma) in glycine buffer at 1 mg/ml was added at 100 μl/well. The plate was then covered in tinfoil, incubated at 37° C. and checked every 30 minutes for a colour change.
The plate was then read at 405 nm using a SPECTRAmax 190 spectrometer.

Dendritic cells [2] = assay type: cell-based, BALB/c mice
Protocol: Bone marrow was obtained from the femurs of mice. The femurs were washed in 70% ethanol and placed in a clean petri dish. Dendritic cell (DC) medium (2.5% granulocyte-macrophage colony-stimulating factor (GM-CSF), 10% heat and activated foetal calf serum, 1% L-glutamine, 1% Penicillin/Streptomycin in RPMI-1640 medium) was injected into the bone marrow of the femur by a pumping action and the cells and medium were collected. 1 ml of the cells in medium was added to a 75 cm^2 flask with 15 mls of DC medium. The flasks were then incubated at 37° C., 5% CO2 to allow DC growth and development. After 5 days an additional 10 mls of DC medium was added.
After 10 days of incubation of bone marrow with GM-CSF, the dendritic cells were harvested. This process was carried out in a tissue culture hood. The contents of the flasks were poured into centrifuge tubes to ensure collection of floating DCs. Approximately 10 mls of cooled phosphate buffered saline (PBS) was added to each empty flask, the flasks gently agitated and the contents collected. This ensured recovery of adhesive DCs. […]
Cells were counted using a haemocytometer. […]
The plates were incubated overnight at 37° C. with 5% CO2 and allowed to settle (harvesting stimulates them). […] The plates were then frozen to kill the cells and once defrosted the supernatant analysed as described below.

Spleen cells = assay: Cytokine modulation in spleen cells: splenocyte IFN-γ production; assay type: cell-based, BALB/c mice; settings: for IFN-γ: splenocytes
Protocol: BALB/c male and female mice bred and maintained at the University of Strathclyde under conventional conditions were used at varying age.
The mouse spleen was removed aseptically and placed in a sterile petri dish containing 5 mls of complete medium (RPMI, 1% L-Glutamine, 1% Penicillin/Streptomycin and 10% foetal calf serum). Cells suspensions were prepared by using the end of a syringe and grinding the spleen through a wire mesh. The cell suspension was then centrifuged at 1000 rpm for 5 minutes. To remove the erythrocytes, the cell pellet was resuspended in Boyle's solution (Tris 0.17M & Ammonium Chloride 0.16M) and centrifuged again for 5 minutes. The pellet was then washed in medium a further two times, then resuspended in 3 mls medium. A cell count was then carried out.
All spleen cell experiments were carried out in 96-well tissue culture plates. […] Unstimulated wells contained 100 μl of cells and 100 μl of medium. The stimulated wells contained 100 μl of cells plus 50 μl of LPS at 1 μg/ml or 50 μl anti-CD3 at 0.5 μg/ml and 50 μl of medium. The remaining wells contained 100 μl cells, 50 μl of MNLP compound and either 50 μl of anti-CD3 or medium alone.
The appropriate Mabs and standards were used according to the protocol described for IL-12 (described in Example 1, above).

α-D-glucosidase [3] = assay: Glycosidase inhibition, α-D-glucosidase (Bacillus); assay type: biochemical, Bacillus stearothermophilus; settings: 1 mg/ml
Protocol: (§1) All enzymes were purchased from Sigma, as were the appropriate p-nitrophenyl substrates. Assays were carried out in microtitre plates. Enzymes were assayed in 0.1 M citric acid/0.2M di-sodium hydrogen phosphate (McIlvaine) buffers at the optimum pH for the enzyme. All assays were carried out at 20° C. For screening assays the incubation assay consisted of 10 μl of enzyme solution, 10 μl of inhibitor solution (made up in water) and 50 μl of the appropriate 5 mM p-nitrophenyl substrate (3.57 mM final conc.) made up in McIlvaine buffer at the optimum pH for the enzyme.
(§2) The reactions were stopped with 0.4M glycine (pH 10.4) during the exponential phase of the reaction, which was determined at the beginning of the assay using blanks with water, which were incubated for a range of time periods to measure the reaction rate using 5 mM substrate solution. Endpoint absorbances were read at 405 nm with a Biorad microtitre plate reader (Benchmark). Water was substituted for the inhibitors in the blanks.

β-D-glucosidase = assay: Glycosidase inhibition, β-D-glucosidase; assay type: biochemical, Almonds (Prunus sp.); settings: for % inhibition glucosidase: 1 mg/ml
Protocol: as §1, §2

Naringinase = assay: Glycosidase inhibition, Naringinase; assay type: biochemical, Penecillium decumbens; settings: 1 mg/ml
Protocol: as §1, §2

[4] = tested on: N-acetyl-β-D-glucosaminidase; assay: Glycosidase inhibition, N-acetyl-β-D-glucosaminidase; assay type: biochemical, Bovine kidney; settings: 1 mg/ml
Protocol: as §1, §2

[5] = tested on: glycosidase enzymes of Table 4.1; assay: Glycosidase inhibition, all enzymes tested (Table 4.1); assay type: biochemical; settings: 1 mg/ml; result in words
Protocol: as §1, §2

[6] = tested on: spleen cells from Leishmania major infected BALB/c mice; assay: Non-healing leishmaniasis model: splenocyte IFN-γ; assay type: cell-based; settings: for IFN-γ: Table 10.1
[7] = tested on: spleen cells from Leishmania major infected BALB/c mice; assay: Non-healing leishmaniasis model: splenocyte IL-5; assay type: cell-based
α-D-glucosidase [8] = biological target: T1, α-D-glucosidase (Saccharomyces cerevisiae, UniProt P53341); assay: Glycosidase inhibition, α-D-glucosidase (yeast); assay type: biochemical, Saccharomyces cerevisiae (Baker's yeast); settings: at a concentration of 800 μM
T1 construct: purchased Sigma
T1 sequence (P53341 whole entry): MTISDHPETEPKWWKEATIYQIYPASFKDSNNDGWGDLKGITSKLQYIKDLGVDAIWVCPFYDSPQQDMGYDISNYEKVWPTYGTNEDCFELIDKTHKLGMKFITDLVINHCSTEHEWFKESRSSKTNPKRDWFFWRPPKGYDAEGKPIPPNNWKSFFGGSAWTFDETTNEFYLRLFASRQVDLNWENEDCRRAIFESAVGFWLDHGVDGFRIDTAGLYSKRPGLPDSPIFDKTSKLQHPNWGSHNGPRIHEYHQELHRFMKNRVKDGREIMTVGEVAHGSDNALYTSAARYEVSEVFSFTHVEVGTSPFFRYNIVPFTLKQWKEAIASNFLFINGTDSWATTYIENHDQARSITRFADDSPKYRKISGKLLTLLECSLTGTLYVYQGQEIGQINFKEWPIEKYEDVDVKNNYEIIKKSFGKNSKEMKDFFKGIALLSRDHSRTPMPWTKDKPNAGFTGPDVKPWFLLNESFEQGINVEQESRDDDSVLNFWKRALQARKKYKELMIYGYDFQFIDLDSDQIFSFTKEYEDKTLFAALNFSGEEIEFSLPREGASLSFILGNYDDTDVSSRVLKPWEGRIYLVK
Protocol: as §1, §2

β-D-galactosidase = assay: Glycosidase inhibition, β-D-galactosidase; assay type: biochemical, Bovine liver; settings: 1 mg/ml; second galactosidase line
Protocol: as §1, §2

[9] = biological target: rabbit gut mucosa α-D-glucosidase; assay: Inhibition of rabbit gut mucosa α-D-glucosidase; assay type: biochemical
[10] = biological target: T2, rabbit small intestine sucrase (Oryctolagus cuniculus, UniProt P07768); assay: Inhibition of rabbit small intestine sucrase; assay type: biochemical; settings: at a concentration of 700 μM
T2 construct: from tissue; host or cells: rabbit small intestine
T2 sequence (P07768 whole entry): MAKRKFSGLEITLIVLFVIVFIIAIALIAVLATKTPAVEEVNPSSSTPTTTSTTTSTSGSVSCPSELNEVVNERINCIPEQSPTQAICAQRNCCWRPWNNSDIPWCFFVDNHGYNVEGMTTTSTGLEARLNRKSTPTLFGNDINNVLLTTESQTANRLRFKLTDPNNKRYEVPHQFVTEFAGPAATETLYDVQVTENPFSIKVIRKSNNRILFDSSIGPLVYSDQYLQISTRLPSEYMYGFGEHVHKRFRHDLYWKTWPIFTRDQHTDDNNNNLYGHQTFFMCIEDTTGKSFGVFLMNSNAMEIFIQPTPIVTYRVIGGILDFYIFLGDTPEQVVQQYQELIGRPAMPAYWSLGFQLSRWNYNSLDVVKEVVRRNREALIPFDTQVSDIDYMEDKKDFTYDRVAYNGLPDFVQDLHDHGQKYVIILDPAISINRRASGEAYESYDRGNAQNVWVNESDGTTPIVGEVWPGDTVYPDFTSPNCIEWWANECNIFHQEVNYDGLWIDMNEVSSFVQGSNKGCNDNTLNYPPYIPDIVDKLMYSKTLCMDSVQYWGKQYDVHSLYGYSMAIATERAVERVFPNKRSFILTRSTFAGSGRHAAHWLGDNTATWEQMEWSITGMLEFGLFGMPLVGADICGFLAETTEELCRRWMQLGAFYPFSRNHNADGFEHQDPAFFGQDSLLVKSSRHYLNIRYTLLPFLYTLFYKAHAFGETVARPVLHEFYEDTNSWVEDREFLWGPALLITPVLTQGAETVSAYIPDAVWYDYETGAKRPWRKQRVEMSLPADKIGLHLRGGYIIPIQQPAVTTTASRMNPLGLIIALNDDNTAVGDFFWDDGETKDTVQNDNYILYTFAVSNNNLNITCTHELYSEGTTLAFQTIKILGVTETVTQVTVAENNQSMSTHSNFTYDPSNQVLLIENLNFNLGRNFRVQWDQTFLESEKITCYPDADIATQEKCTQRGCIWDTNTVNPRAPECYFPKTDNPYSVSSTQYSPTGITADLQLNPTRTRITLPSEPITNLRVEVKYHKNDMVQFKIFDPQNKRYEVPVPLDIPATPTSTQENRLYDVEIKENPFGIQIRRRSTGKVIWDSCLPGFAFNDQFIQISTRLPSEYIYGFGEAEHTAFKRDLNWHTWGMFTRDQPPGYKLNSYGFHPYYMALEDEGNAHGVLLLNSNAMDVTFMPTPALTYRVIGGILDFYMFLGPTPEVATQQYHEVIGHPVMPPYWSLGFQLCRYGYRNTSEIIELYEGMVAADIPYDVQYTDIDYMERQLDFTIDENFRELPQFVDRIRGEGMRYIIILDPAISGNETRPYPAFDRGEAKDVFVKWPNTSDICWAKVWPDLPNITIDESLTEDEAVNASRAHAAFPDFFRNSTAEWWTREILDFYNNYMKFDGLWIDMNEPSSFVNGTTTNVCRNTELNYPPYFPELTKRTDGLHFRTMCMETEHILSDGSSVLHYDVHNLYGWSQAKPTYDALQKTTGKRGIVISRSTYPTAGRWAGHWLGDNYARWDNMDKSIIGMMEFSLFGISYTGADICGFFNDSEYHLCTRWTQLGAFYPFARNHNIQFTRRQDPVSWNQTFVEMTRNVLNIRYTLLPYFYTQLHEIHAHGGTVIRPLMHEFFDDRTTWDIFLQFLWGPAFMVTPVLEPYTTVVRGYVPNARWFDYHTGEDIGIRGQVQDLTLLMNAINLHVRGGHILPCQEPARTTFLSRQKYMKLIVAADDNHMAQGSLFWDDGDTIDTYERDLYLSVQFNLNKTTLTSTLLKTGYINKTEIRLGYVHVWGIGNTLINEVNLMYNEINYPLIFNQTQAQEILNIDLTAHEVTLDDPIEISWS

[11] = tested on: Na^+-dependent D-glucose uptake into ovine intestinal brush border membrane vesicles; assay: Effect on glucose transport (competition assay with labelled D-glucose); assay type: biochemical
α-mannosidase = settings: background statement; cited from earlier work

## OC[C@H]1[C@@H](O)[C@H](O)[C@H]2[C@@H](O)[C@@H](O)CN21 [3,7-diepi-casuarine (10), (1R,2R,3S,6S,7R,7aR)-3-(Hydroxymethyl)-1,2,6,7-tetrahydroxypyrrolizidine]
Dendritic cells [1]
  IL-12 RELEASE: Yes
Dendritic cells [2]; compound + LPS
  IL-2 (units/ml): 0.69 units/ml
Dendritic cells [2]; treatment alone
  IL-2 (units/ml): 0.00 units/ml
Spleen cells; Table 3.1, treatment alone
  IFN-γ: 0.22 ng/mL
α-D-glucosidase [3]
  % inhibition gluc (Bacillus): −7%
β-D-glucosidase
  % inhibition glucosidase: 5%
Naringinase
  % inhibition Naringinase: 6%
[4]
  % inhibition N-acetyl-β-gluc: −6%
[5]
  inhibition of any of the enzymes tested: do not significantly inhibit any of the enzymes tested
[6]; compound + L. major Ag
  IFN-γ: 5.5 ng/mL
[6]; treatment alone
  IFN-γ: ~0.5 ng/mL
[6]; result in words
  IFN-γ (healing Th1 response): enhances IFN-γ
[7]; Table 10.2, compound + αCD3
  IL-5: 150 pg/mL
[7]; result in words
  Th2 response (IL-5): suppressing the Th2 response (via downregulation of the Th2 cytokine IL-5)

## O[C@H]1[C@H](O)[C@@H](O)CN2CC[C@H](O)[C@H]12 [Castanospermine (20), Castanospermine, reference compound]
Dendritic cells [1]
  IL-12 RELEASE: No
Spleen cells; Table 3.2, compound + αCD3
  IFN-γ: 9.0 ng/mL
Spleen cells; Table 3.2, treatment alone
  IFN-γ: <1.0 ng/mL
Spleen cells; result in words
  IFN-γ secretion/production in splenocytes: inhibits the production of this cytokine
α-D-glucosidase [8]
  inhibition of yeast α-D-glucosidase: not being inhibitory
α-D-glucosidase [3]
  % inhibition gluc (Bacillus): 6%
β-D-glucosidase
  % inhibition glucosidase: 88%
β-D-glucosidase; read-out: Ki with almond 6-D-glucosidase
  Ki: 9 µM
β-D-galactosidase
  % inhibition galactosidase: 16%
Naringinase
  % inhibition Naringinase: 39%
[4]
  % inhibition N-acetyl-β-gluc: 16%
[9]
  IC50: 8 µM
[10]
  inhibition of rabbit small intestine sucrase: inhibited
[11]; initial rate, control 240
  Glucose uptake: 225 pmol/s/mg
[11]; result in words
  glucose transport: slightly inhibited

## O[C@H]1[C@H]2[C@H](O)CCCN2C[C@H]1O [Swainsonine (4), Swainsonine]
Dendritic cells [1]
  IL-12 RELEASE: No
Dendritic cells [1]; tested at 50 μg/ml
  IL-12 secretion: failed to induce IL-12 secretion
α-mannosidase
  inhibition of α-mannosidase: potent and specific inhibitor of α-mannosidase
